Read-outs that look alike come from different tables or passages of the source.
Test system: Multidrug resistant Acinetobacter Baumannii, (MRAB)
Assay: microbe, parasite or virus in culture

## NCC[C@H](O)C(=O)N[C@@H]1C[C@H](N)[C@@H](O[C@H]2O[C@H](CN)[C@@H](O)[C@H](O)[C@H]2O)[C@H](O)[C@H]1O[C@H]1O[C@H](CO)[C@@H](O)[C@H](N)[C@H]1O [AMI, Amikacin]
read-out: % bacterial viability, MRAB 1 014754 Urine, AMI 4 μg/ml
  viability at 4 µg/mL: 35.9%
read-out: % bacterial viability, MRAB 1 014754 Urine, AMI 12 μg/ml
  viability at 12 µg/mL: 24.5%
read-out: % bacterial viability, MRAB 1 014754 Urine, AMI 20 μg/ml
  viability at 20 µg/mL: 14.7%
read-out: % bacterial viability, MRAB 2 014801 Catheter, AMI 4 μg/ml
  viability at 4 µg/mL: 36%
read-out: % bacterial viability, MRAB 2 014801 Catheter, AMI 12 μg/ml
  viability at 12 µg/mL: 14.1%
read-out: % bacterial viability, MRAB 2 014801 Catheter, AMI 20 μg/ml
  viability at 20 µg/mL: 8.36%
read-out: % bacterial viability, MRAB 3 015069 Skin, AMI 4 μg/ml
  viability at 4 µg/mL: 66.6%
read-out: % bacterial viability, MRAB 3 015069 Skin, AMI 12 μg/ml
  viability at 12 µg/mL: 48.6%
read-out: % bacterial viability, MRAB 3 015069 Skin, AMI 20 μg/ml
  viability at 20 µg/mL: 41.7%
read-out: % bacterial viability, MRAB 4 015095 Hospital Environ, AMI 4 μg/ml
  viability at 4 µg/mL: 66.4%
read-out: % bacterial viability, MRAB 4 015095 Hospital Environ, AMI 12 μg/ml
  viability at 12 µg/mL: 42.9%
read-out: % bacterial viability, MRAB 4 015095 Hospital Environ, AMI 20 μg/ml
  viability at 20 µg/mL: 33.9%
read-out: % bacterial viability, MRAB 5 015103 Hospital Environ, AMI 4 μg/ml
  viability at 4 µg/mL: 65.2%
read-out: % bacterial viability, MRAB 5 015103 Hospital Environ, AMI 12 μg/ml
  viability at 12 µg/mL: 26.9%
read-out: % bacterial viability, MRAB 5 015103 Hospital Environ, AMI 20 μg/ml
  viability at 20 µg/mL: 24.6%
read-out: % bacterial viability, MRAB 12 016419 Catheter, AMI 4 μg/ml
  viability at 4 µg/mL: 49.7%
read-out: % bacterial viability, MRAB 12 016419 Catheter, AMI 12 μg/ml
  viability at 12 µg/mL: 22.7%
read-out: % bacterial viability, MRAB 12 016419 Catheter, AMI 20 μg/ml
  viability at 20 µg/mL: 19.8%
